Drawing on ChEMBL document CHEMBL3045237, “Synthesis, DNA binding, hemolytic, and anti-cancer assays of curcumin I-based ligands and their ruthenium(III) complexes” (Med Chem Res, 2013), this text covers inhibition of growth, IC50 and hemolysis for 3 compounds.

In series [1] the test system is HepG2. Nature of the series: Growth inhibition of Homo sapiens (human) HepG2 cells at 0.005 mg/ml after 24 hr by MTS assay. The note with it: HepG2, 24 h, read-out: GI. It is filed as functional. A general note: Formazan colour is commonly taken as a measure of viable cells.
The test system of series [2] is HepG2. Nature of the series: Growth inhibition of Homo sapiens (human) HepG2 cells at 0.5 mg/ml after 24 hr by MTS assay. It counts as functional. To be noted: HepG2, 24 h, read-out: GI.
Series [3] relates to MDA-MB-231. Briefly: Growth inhibition of Homo sapiens (human) MDA-MB-231 cells at 0.0005 mg/ml after 24 hr by MTS assay. It is filed as functional. To be noted: MDA-MB-231, 24 h, read-out: GI.
Series [4] has as its system MDA-MB-231. Briefly: Growth inhibition of Homo sapiens (human) MDA-MB-231 cells at 0.005 mg/ml after 24 hr by MTS assay. It counts as functional. The note with it: MDA-MB-231, 24 h, read-out: GI.
The test system of series [5] is MDA-MB-231. Briefly: Growth inhibition of Homo sapiens (human) MDA-MB-231 cells at 0.05 mg/ml after 24 hr by MTS assay. It is filed as functional. The note with it: MDA-MB-231, 24 h, read-out: GI.
Series [6] relates to HeLa. Briefly: Cytotoxicity against Homo sapiens (human) HeLa cells after 24 hr by MTS assay. It counts as functional, cell-based.
The test system of series [7] is HeLa. Briefly: Growth inhibition of Homo sapiens (human) HeLa cells at 0.005 mg/ml after 24 hr by MTS assay. It is filed as functional. To be noted: read-out: GI.
Series [8] deals with HeLa. Briefly: Growth inhibition of Homo sapiens (human) HeLa cells at 0.0005 mg/ml after 24 hr by MTS assay. The note with it: read-out: GI. It counts as functional.
Series [9] has as its system HeLa. Briefly: Growth inhibition of Homo sapiens (human) HeLa cells at 0.05 mg/ml after 24 hr by MTS assay. It counts as functional. To be noted: read-out: GI.
Series [10] concerns HeLa. Briefly: Growth inhibition of Homo sapiens (human) HeLa cells at 0.5 mg/ml after 24 hr by MTS assay. It counts as functional. The note with it: read-out: GI.
Series [11] can be described thus: Hemolytic activity against Homo sapiens (human) RBC at 100 ug/ml after 1 hr by spectrophotometric analysis relative to control. It is filed as ADME, cell-based, Erythrocyte. To be noted: red blood cells (RBC), read-out: Activity.
Series [12] is described as follows: Hemolytic activity against Homo sapiens (human) RBC at 50 ug/ml after 1 hr by spectrophotometric analysis relative to control. It is filed as cell-based, Erythrocyte. To be noted: red blood cells (RBC), read-out: Activity.
Series [13] can be described thus: Hemolytic activity against Homo sapiens (human) RBC at 5 ug/ml after 1 hr by spectrophotometric analysis relative to control. To be noted: red blood cells (RBC), read-out: Activity. It is filed as ADME, cell-based, Erythrocyte.
Series [14] in a line: Hemolytic activity against Homo sapiens (human) RBC at 10 ug/ml after 1 hr by spectrophotometric analysis relative to control. It counts as ADME, cell-based, Erythrocyte. The note with it: red blood cells (RBC), read-out: Activity.
Series [15] is described as follows: Hemolytic activity against Homo sapiens (human) RBC at 20 ug/ml after 1 hr by spectrophotometric analysis relative to control. It is filed as ADME, cell-based, Erythrocyte. To be noted: red blood cells (RBC), read-out: Activity.
The test system of another series is HT-29. Briefly: Growth inhibition of Homo sapiens (human) HT-29 cells at 0.5 mg/ml after 24 hr by MTS assay. It is filed as functional. The note with it: HT-29, 24 h, read-out: GI.
Series [16] relates to MDA-MB-231. Nature of the series: Growth inhibition of Homo sapiens (human) MDA-MB-231 cells at 0.5 mg/ml after 24 hr by MTS assay. It counts as functional. The note with it: MDA-MB-231, 24 h, read-out: GI.

As usually defined, the IC50 is the concentration that inhibits the measured activity by half. A higher IC50 goes with a need for much substance. As for `COc1cc(/C=C/C(=N\NC(N)=O)C(=Cc2ccc(O)cc2)C(/C=C/c2ccc(O)c(OC)c2)=N/NC(N)=O)ccc1O`, the inhibition of growth at 5 µg/mL with HepG2 [1] worked out at 0.51%; in the series with MDA-MB-231 [4], 12.9%; in the series with HeLa [7], 33.5%. In addition, the inhibition of growth at 500 µg/mL with HepG2 [2] came to 0.74%; in the series with HeLa [10] it was 13.8%. The inhibition of growth at 0.5 µg/mL in the series on MDA-MB-231 [3] amounted to 21.7%; in the series with HeLa [8] it was 30.8%. Further, the inhibition of growth at 50 µg/mL with MDA-MB-231 [5] came to 7.64%; in the series with HeLa [9], 35%. Also, the IC50 in the series with HeLa [6] is 20.4 nM. For the same compound, the hemolysis at 1 h, 100 ug/ml in series [11] was determined as 21%. Moreover, the hemolysis at 1 h, 50 ug/ml in [12] turned out to be 18%. Besides, the hemolysis at 1 h, 5 ug/ml in series [13] was determined as 8%. For the same compound, the hemolysis at 1 h, 10 ug/ml in series [14] is 10%. Besides, in series [15], the hemolysis at 1 h, 20 ug/ml came to 12%.

For `COc1cc(/C=C/C(=N\NC(N)=O)C(=Cc2cc(OC)c(O)c(OC)c2)C(/C=C/c2ccc(O)c(OC)c2)=N/NC(N)=O)ccc1O`, the inhibition of growth at 500 µg/mL in the series with HepG2 [2] came to 48.1%; in the series with HT-29, 46.5%; in the series on MDA-MB-231 [16], 33.6%; in the series on HeLa [10] it was 53.1%. Also, the inhibition of growth at 0.5 µg/mL in the series on MDA-MB-231 [3] is 8.79%; in the series on HeLa [8] it was 40.1%. Also, the inhibition of growth at 5 µg/mL in the series with HeLa [7] is 15.8%. In addition, in the series with HeLa [9], the inhibition of growth at 50 µg/mL stood at 28.1%. Moreover, in series [11], the hemolysis at 1 h, 100 ug/ml was 15%. For the same compound, in [12], the hemolysis at 1 h, 50 ug/ml was found to be 9%. In addition, the hemolysis at 1 h, 5 ug/ml in [13] was 2%. Moreover, the hemolysis at 1 h, 10 ug/ml in series [14] was found to be 4%. Moreover, in [15], the hemolysis at 1 h, 20 ug/ml stood at 3.9%.

Consider `N#Cc1ccc(C(c2ccc(C#N)cc2)n2cncn2)cc1` [LETROZOLE], for which the hemolysis at 1 h, 100 ug/ml in [11] amounted to 98%. Moreover, the hemolysis at 1 h, 50 ug/ml in [12] amounted to 80%. In addition, the hemolysis at 1 h, 5 ug/ml in series [13] was determined as 22%. For the same compound, the hemolysis at 1 h, 10 ug/ml in series [14] was determined as 32%. For the same compound, the hemolysis at 1 h, 20 ug/ml in [15] was determined as 60%.
